Laboratory results published in patent US12077503B2, “Substituted cyclic amides and their use as herbicides” (FMC CORPORATION, priority 2015, dated 2024).

Experiments:
Experiment in all cases: Test C preemergence
Type in all cases: in vivo
[1] = system: morningglory (Ipomoea coccinea); conditions: for Plant response rating, Morningglory: scale 0 to 100, 0 no effect, 100 complete control
In short: (§1)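 Preemergence application to seeds in loam/sand soil, or foliar (postemergence) application to plants 2–18 cm tall in peat moss/vermiculite medium; surfactant-containing non-phytotoxic solvent vehicle; greenhouse. Visual injury vs controls at 13–15 d; 0 = no effect, 100 = complete control.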

[2] = system: pigweed (Amaranthus retroflexus); conditions: for Plant response rating, Pigweed: scale 0 to 100, 0 no effect, 100 complete control
In short: as §1

[3] = system: johnsongrass (Sorghum halepense); conditions: for Plant response rating, Johnsongrass: scale 0 to 100, 0 no effect, 100 complete control
In short: as §1

[4] = system: nutsedge, yellow (yellow nutsedge, Cyperus esculentus); conditions: for Plant response rating, Nutsedge, Yellow: scale 0 to 100, 0 no effect, 100 complete control
In short: as §1

[5] = system: velvetleaf (Abutilon theophrasti); conditions: for Plant response rating, Velvetleaf: scale 0 to 100, 0 no effect, 100 complete control
In short: as §1

[6] = system: Galium (catchweed bedstraw, Galium aparine); conditions: for Plant response rating, Galium: scale 0 to 100, 0 no effect, 100 complete control
In short: as §1

corn (Zea mays) = conditions: for Plant response rating, Corn: scale 0 to 100, 0 no effect, 100 complete control
In short: as §1

[7] = system: foxtail, giant (giant foxtail, Setaria faberii); conditions: for Plant response rating, Foxtail, Giant: scale 0 to 100, 0 no effect, 100 complete control
In short: as §1

[8] = system: crabgrass, large (large crabgrass, Digitaria sanguinalis); conditions: for Plant response rating, Crabgrass, Large: scale 0 to 100, 0 no effect, 100 complete control
In short: as §1

[9] = system: barnyardgrass (Echinochloa crus-galli); conditions: for Plant response rating, Barnyardgrass: scale 0 to 100, 0 no effect, 100 complete control
In short: as §1

[10] = system: blackgrass (Alopecurus myosuroides); conditions: for Plant response rating, Blackgrass: scale 0 to 100, 0 no effect, 100 complete control
In short: as §1

[11] = system: ryegrass, Italian (Italian ryegrass, Lolium multiflorum); conditions: for Plant response rating, Ryegrass, Italian: scale 0 to 100, 0 no effect, 100 complete control
In short: as §1

[12] = system: lambsquarters (Chenopodium album); conditions: for Plant response rating, Lambsquarters: scale 0 to 100, 0 no effect, 100 complete control
In short: as §1

[13] = system: waterhemp (common waterhemp, Amaranthus rudis); conditions: for Plant response rating, Waterhemp: scale 0 to 100, 0 no effect, 100 complete control
In short: as §1

[14] = system: wheat (winter wheat, Triticum aestivum); conditions: for Plant response rating, Wheat: scale 0 to 100, 0 no effect, 100 complete control
In short: as §1

soybean (Glycine max) = conditions: scale 0 to 100, 0 no effect, 100 complete control
In short: as §1

[15] = system: ragweed (common ragweed, Ambrosia elatior); conditions: for Plant response rating, Ragweed: scale 0 to 100, 0 no effect, 100 complete control
In short: as §1

[16] = system: oilseed rape (Brassica napus); conditions: for Plant response rating, Oilseed Rape: scale 0 to 100, 0 no effect, 100 complete control
In short: as §1

[17] = 31 g ai/ha, 0 is no effect, 100 is complete control

With `CC(C)Oc1cccc(C2CN(C)C(=O)C2C(=O)Nc2ccccc2S(C)(=O)=O)c1` (stereo not shown) [Compound 653] the “Plant response rating (scale of 0 to 100), Morningglory” value [1, 17] was 0, the “Plant response rating, Morningglory” value ([1]; 62 g ai/ha) was 0 and the “Plant response rating, Morningglory” value ([1]; 125 g ai/ha) was 0. The “Plant response rating, Morningglory” value ([1]; 250 g ai/ha) was 0, the “Plant response rating (scale of 0 to 100), Pigweed” value [2, 17] was 30 and the “Plant response rating, Pigweed” value ([2]; 62 g ai/ha) was 20. For the same compound, the “Plant response rating, Pigweed” value ([2]; 125 g ai/ha) was 50, the “Plant response rating, Pigweed” value ([2]; 250 g ai/ha) was 85 and the “Plant response rating (scale of 0 to 100), Johnsongrass” value [3, 17] was 0. For the same compound, the “Plant response rating, Johnsongrass” value ([3]; 62 g ai/ha) was 0, the “Plant response rating, Johnsongrass” value ([3]; 125 g ai/ha) was 40 and the “Plant response rating, Johnsongrass” value ([3]; 250 g ai/ha) was 55. The “Plant response rating (scale of 0 to 100), Nutsedge, Yellow” value [4, 17] was 0, the “Plant response rating, Nutsedge, Yellow” value ([4]; 62 g ai/ha) was 0 and the “Plant response rating, Nutsedge, Yellow” value ([4]; 125 g ai/ha) was 0. For the same compound, the “Plant response rating, Nutsedge, Yellow” value ([4]; 250 g ai/ha) was 25, the “Plant response rating (scale of 0 to 100), Velvetleaf” value [5, 17] was 0 and the “Plant response rating, Velvetleaf” value ([5]; 62 g ai/ha) was 25. The “Plant response rating, Velvetleaf” value ([5]; 125 g ai/ha) was 35, the “Plant response rating, Velvetleaf” value ([5]; 250 g ai/ha) was 50 and the “Plant response rating (scale of 0 to 100), Galium” value [6, 17] was 0. The “Plant response rating, Galium” value ([6]; 62 g ai/ha) was 100, the “Plant response rating, Galium” value ([6]; 125 g ai/ha) was 30 and the “Plant response rating, Galium” value ([6]; 250 g ai/ha) was 40. The “Plant response rating (scale of 0 to 100), Corn” value (corn (Zea mays); [17]) was 0, the “Plant response rating, Corn” value (corn (Zea mays); 62 g ai/ha) was 0 and the “Plant response rating, Corn” value (corn (Zea mays); 125 g ai/ha) was 0. The “Plant response rating, Corn” value (corn (Zea mays); 250 g ai/ha) was 20, the “Plant response rating (scale of 0 to 100), Foxtail, Giant” value [7, 17] was 85 and the “Plant response rating, Foxtail, Giant” value ([7]; 62 g ai/ha) was 95. The “Plant response rating, Foxtail, Giant” value ([7]; 125 g ai/ha) was 95, the “Plant response rating, Foxtail, Giant” value ([7]; 250 g ai/ha) was 100 and the “Plant response rating (scale of 0 to 100), Crabgrass, Large” value [8, 17] was 90. For the same compound, the “Plant response rating, Crabgrass, Large” value ([8]; 62 g ai/ha) was 95, the “Plant response rating, Crabgrass, Large” value ([8]; 125 g ai/ha) was 100 and the “Plant response rating, Crabgrass, Large” value ([8]; 250 g ai/ha) was 100. For the same compound, the “Plant response rating (scale of 0 to 100), Barnyardgrass” value [9, 17] was 20, the “Plant response rating, Barnyardgrass” value ([9]; 62 g ai/ha) was 55 and the “Plant response rating, Barnyardgrass” value ([9]; 125 g ai/ha) was 80. For the same compound, the “Plant response rating, Barnyardgrass” value ([9]; 250 g ai/ha) was 90, the “Plant response rating (scale of 0 to 100), Blackgrass” value [10, 17] was 0 and the “Plant response rating, Blackgrass” value ([10]; 62 g ai/ha) was 15. For the same compound, the “Plant response rating, Blackgrass” value ([10]; 125 g ai/ha) was 60, the “Plant response rating, Blackgrass” value ([10]; 250 g ai/ha) was 90 and the “Plant response rating (scale of 0 to 100), Ryegrass, Italian” value [11, 17] was 0. For the same compound, the “Plant response rating, Ryegrass, Italian” value ([11]; 62 g ai/ha) was 10, the “Plant response rating, Ryegrass, Italian” value ([11]; 125 g ai/ha) was 20 and the “Plant response rating, Ryegrass, Italian” value ([11]; 250 g ai/ha) was 25. For the same compound, the “Plant response rating (scale of 0 to 100), Lambsquarters” value [12, 17] was 15, the “Plant response rating, Lambsquarters” value ([12]; 62 g ai/ha) was 35 and the “Plant response rating, Lambsquarters” value ([12]; 125 g ai/ha) was 50. For the same compound, the “Plant response rating, Lambsquarters” value ([12]; 250 g ai/ha) was 60, the “Plant response rating (scale of 0 to 100), Waterhemp” value [13, 17] was 35 and the “Plant response rating, Waterhemp” value ([13]; 62 g ai/ha) was 30. For the same compound, the “Plant response rating, Waterhemp” value ([13]; 125 g ai/ha) was 50, the “Plant response rating, Waterhemp” value ([13]; 250 g ai/ha) was 80 and the “Plant response rating (scale of 0 to 100), Wheat” value [14, 17] was 0. For the same compound, the “Plant response rating, Wheat” value ([14]; 62 g ai/ha) was 0, the “Plant response rating, Wheat” value ([14]; 125 g ai/ha) was 0 and the “Plant response rating, Wheat” value ([14]; 250 g ai/ha) was 40. For the same compound, the “Plant response rating, Soybean” value (soybean (Glycine max); 125 g ai/ha) was 5, the “Plant response rating, Soybean” value (soybean (Glycine max); 250 g ai/ha) was 40 and the “Plant response rating (scale of 0 to 100), Ragweed” value [15, 17] was 0. The “Plant response rating, Ragweed” value ([15]; 62 g ai/ha) was 5, the “Plant response rating, Ragweed” value ([15]; 125 g ai/ha) was 35 and the “Plant response rating, Ragweed” value ([15]; 250 g ai/ha) was 60. The “Plant response rating (scale of 0 to 100), Oilseed Rape” value [16, 17] was 0, the “Plant response rating, Oilseed Rape” value ([16]; 62 g ai/ha) was 0 and the “Plant response rating, Oilseed Rape” value ([16]; 125 g ai/ha) was 30. The “Plant response rating, Oilseed Rape” value ([16]; 250 g ai/ha) was 85.
